Legend:
Type in all cases: biochemical
Akt2 = molecular target: T1, Akt2 (Homo sapiens, UniProt P31751); experiment: Akt activation assay (PDK1-mediated activation, LANCE Ultra crosstide TR-FRET), Akt2; details: read-out: Biological Assay 1 IC50 (nM) Akt2
T1 construct: unspecified tag, removed (detagged) (cleaved yes); purchased SignalChem and Proteros (Akt2); Merck Millipore (PDK1) 14-452 (PDK1); none given for Akt2
Protocol: (§1) Biological Assay 1: Akt Activation Assay
(§2) Addition of a Europium-labelled antibody specific to the phosphopeptide allows energy transfer from the Europium donor to the Ultra Ulight™ acceptor if close enough in proximity.
(§3) Full length active His6-tagged PDK1 was obtained from Merck Millipore (14-452).
(§4) 1× assay buffer (AB): 50 mM HEPES pH 7.5, 1 mM EGTA, 10 mM MgCl2, 0.01% Tween. Immediately before use, DTT to a concentration of 2 mM was added.
(§5) To prepare lipid vesicles: 1 mg/ml PtdIns(3,4,5)P3 solution (in 10 mM HEPES 7.5) was added to 16.7 mg/ml DOPS/DOPC mixture (in 10 mM HEPES pH 7.5) in a ratio of 1:8.3. MilliQ water was added to the solution to generate concentrations of 400 μM DOPS, 400 μM DOPC and 40 μM PtdIns(3,4,5)P3. The mixture was subjected to 5× freeze/thaw cycles and aliquots stored at −20° C.
(§6) 5 μL enzyme in 1×AB was incubated with 2.5 μL test compound. To start the reaction 2.5 μL reaction mix was added which consisted of PDK1, lipid preparations, crosstide and ATP in 1×AB. Final assay concentrations were as follows: 1% DMSO, 5 nM SignalChem Akt1/15 nM SignalChem Akt2/3 nM Signalchem Akt3/5 nM Proteros Akt1/5 nM proteros Akt2/5 nM Proteros Akt3, 5 nM PDK1, 5.5 μM DOPS, 5.5 μM DOPC, 0.55 μM PtdIns(3,4,5)P3, 100 μM ATP, 100 nM LANCE® Ultra Ulight™-Crosstide. After 30 min, the reaction was stopped using 5 μL 40 μM EDTA in 1× Detection buffer for 5 min. For detection, 5 μL 8 nM LANCE® Ultra Europium-anti-phospho-Crosstide antibody in 1× Detection buffer was added to each well and incubated for 1 h. Plates read with the EnVision® Multilabel Plate Reader, excitation at 320 nm and emission at 665 nm and 615 nm. Compound IC50 was determined using a 4-parameter equation.

Akt1 = molecular target: T2, Akt1 (Homo sapiens, UniProt P31749); experiment: Akt activation assay (PDK1-mediated activation, LANCE Ultra crosstide TR-FRET), Akt1; details: read-out: Biological Assay 1 IC50 (nM) Akt1
T2 construct: unspecified tag, removed (detagged) (cleaved yes); purchased SignalChem and Proteros (Akt1); Merck Millipore (PDK1) 14-452 (PDK1); none given for Akt1
Protocol: as §1, §2, §3, §4, §5, §6

Akt3 = molecular target: T3, Akt3 (Homo sapiens, UniProt Q9Y243); experiment: Akt activation assay (PDK1-mediated activation, LANCE Ultra crosstide TR-FRET), Akt3; details: read-out: Biological Assay 1 IC50 (nM) Akt3
T3 construct: unspecified tag, removed (detagged) (cleaved yes); purchased SignalChem and Proteros (Akt3); Merck Millipore (PDK1) 14-452 (PDK1); none given for Akt3
Protocol: as §1, §2, §3, §4, §5, §6

T3 sequence (Q9Y243 whole entry): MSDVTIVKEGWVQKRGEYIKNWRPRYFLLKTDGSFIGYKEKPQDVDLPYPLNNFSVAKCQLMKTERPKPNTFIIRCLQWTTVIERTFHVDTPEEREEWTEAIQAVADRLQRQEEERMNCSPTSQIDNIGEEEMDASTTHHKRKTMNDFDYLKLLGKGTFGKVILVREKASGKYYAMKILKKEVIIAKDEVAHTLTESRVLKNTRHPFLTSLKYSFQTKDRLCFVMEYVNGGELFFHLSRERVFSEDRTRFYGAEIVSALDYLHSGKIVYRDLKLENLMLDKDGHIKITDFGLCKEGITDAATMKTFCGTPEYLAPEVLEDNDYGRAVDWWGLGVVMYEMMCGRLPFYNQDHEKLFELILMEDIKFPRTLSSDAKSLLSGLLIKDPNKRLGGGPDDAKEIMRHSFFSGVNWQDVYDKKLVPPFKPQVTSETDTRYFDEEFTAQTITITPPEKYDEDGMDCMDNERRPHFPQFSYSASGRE
T1 sequence (P31751 whole entry): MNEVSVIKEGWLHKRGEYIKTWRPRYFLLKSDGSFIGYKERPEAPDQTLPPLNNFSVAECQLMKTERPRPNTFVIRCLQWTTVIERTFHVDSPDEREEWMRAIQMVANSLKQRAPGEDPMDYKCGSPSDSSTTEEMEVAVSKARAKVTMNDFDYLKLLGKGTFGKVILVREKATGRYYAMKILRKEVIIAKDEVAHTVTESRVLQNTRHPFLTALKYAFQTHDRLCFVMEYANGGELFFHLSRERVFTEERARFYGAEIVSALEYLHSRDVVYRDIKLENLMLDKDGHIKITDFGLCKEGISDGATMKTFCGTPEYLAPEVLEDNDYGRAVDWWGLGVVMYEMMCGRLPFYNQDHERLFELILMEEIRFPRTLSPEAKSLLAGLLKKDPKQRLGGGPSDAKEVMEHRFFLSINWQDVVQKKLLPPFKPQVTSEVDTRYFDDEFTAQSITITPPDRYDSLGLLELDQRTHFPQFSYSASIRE
T2 sequence (P31749 whole entry): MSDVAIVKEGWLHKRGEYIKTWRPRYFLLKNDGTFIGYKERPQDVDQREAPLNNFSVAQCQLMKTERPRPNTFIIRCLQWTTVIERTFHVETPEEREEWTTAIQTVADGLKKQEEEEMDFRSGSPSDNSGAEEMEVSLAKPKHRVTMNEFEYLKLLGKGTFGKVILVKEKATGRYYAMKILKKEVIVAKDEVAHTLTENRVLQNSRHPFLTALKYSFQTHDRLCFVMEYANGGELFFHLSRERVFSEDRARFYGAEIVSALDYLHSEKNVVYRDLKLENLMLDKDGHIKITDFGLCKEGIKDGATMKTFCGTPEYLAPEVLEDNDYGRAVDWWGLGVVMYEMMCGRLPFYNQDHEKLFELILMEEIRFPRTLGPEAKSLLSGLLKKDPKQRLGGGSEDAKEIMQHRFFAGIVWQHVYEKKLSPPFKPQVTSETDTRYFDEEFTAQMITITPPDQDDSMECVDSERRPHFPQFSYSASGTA

SMILES | IC50 (Akt2) | IC50 (Akt1) | IC50 (Akt3)
COC1CCC(CC(=O)Nc2cnc(-c3ccc(C4(N)COC4)cc3)c(-c3ccccc3)c2)CC1 (mixture of isomers) [Example 21, N-(6-(4-(3-aminooxetan-3-yl)phenyl)-5-phenylpyridin-3-yl)-2-(4-methoxycyclohexyl)acetamide] | 1100 nM | > 55000 nM | 210 nM
CC(=O)N(C)[C@H]1CC[C@H](CC(=O)Nc2cnc(-c3ccc([C@@H](C)N)cc3)c(-c3ccccc3)c2)CC1 [Example 8, N-(6-(4-((R)-1-aminoethyl)phenyl)-5-phenylpyridin-3-yl)-2-(trans-4-(N-methylacetamido)cyclohexyl)acetamide] | 710 nM | 12000 nM | 51 nM
CC(=O)N(C)[C@H]1CC[C@H](CC(=O)Nc2cnc(-c3ccc([C@H](N)C(F)F)cc3)c(-c3ccccc3)c2)CC1 [Example 11, N-(6-(4-((S)-1-amino-2,2-difluoroethyl)phenyl)-5-phenylpyridin-3-yl)-2-(trans-4-(N-methylacetamido)cyclohexyl)acetamide] | > 20000 nM | > 30000 nM | 630 nM
CC(=O)N[C@H]1CC[C@H](CC(=O)Nc2cnc(-c3ccc([C@]4(N)C[C@@H](O)C4)cc3)c(-c3ccccc3)c2)CC1 [Example 13, 2-(trans-4-acetamidocyclohexyl)-N-(6-(4-(trans-1-amino-3-hydroxycyclobutyl)phenyl)-5-phenylpyridin-3-yl)acetamide] | 480 nM | – | 220 nM
CC(=O)N[C@H]1CC[C@H](CC(=O)Nc2cnc(-c3ccc(C4(N)COC4)cc3)c(-c3ccccc3)c2)CC1 [Example 14, 2-(trans-4-acetamidocyclohexyl)-N-(6-(4-(3-aminooxetan-3-yl)phenyl)-5-phenylpyridin-3-yl)acetamide] | 1300 nM | > 30000 nM | 600 nM
Cc1cscc1-c1cc(NC(=O)C[C@H]2CC[C@H](N(C)S(C)(=O)=O)CC2)cnc1-c1ccc(C2(N)CCC2)cc1 [Example 19, N-(6-(4-(1-aminocyclobutyl)phenyl)-5-(4-methylthiophen-3-yl)pyridin-3-yl)-2-(trans-4-(N-methylmethylsulfonamido)cyclohexyl)acetamide] | > 26000 nM | > 30000 nM | 6400 nM
CC(C)(C(=O)N[C@H]1CC[C@H](CC(=O)Nc2cnc(-c3ccc(C4(N)CCC4)cc3)c(-c3cccnc3)c2)CC1)C(F)(F)F [Example 20, N-(trans-4-(2-((2-(4-(1-aminocyclobutyl)phenyl)-[3,3′-bipyridin]-5-yl)amino)-2-oxoethyl)cyclohexyl)-3,3,3-trifluoro-2,2-dimethylpropanamide] | > 15000 nM | > 30000 nM | 6800 nM
CC(=O)N[C@H]1CC[C@H](CC(=O)Nc2cnc(-c3ccc([C@@H](C)N)cc3)c(-c3ccccc3)c2)CC1 [Example A9, 2-(trans-4-acetamidocyclohexyl)-N-(6-(4-((R)-1-aminoethyl)phenyl)-5-phenylpyridin-3-yl)acetamide] | 400 nM | – | 80 nM
C[C@@H](N)c1ccc(-c2ncc(NC(=O)C[C@H]3CC[C@H](NC(=O)C(C)(C)C(F)(F)F)CC3)cc2-c2ccccc2)cc1 [Example A11, N-(trans-4-(2-((6-(4-((R)-1-aminoethyl)phenyl)-5-phenylpyridin-3-yl)amino)-2-oxoethyl)cyclohexyl)-3,3,3-trifluoro-2,2-dimethylpropanamide] | 1500 nM | – | 880 nM
CC(C)(C)C(=O)N[C@H]1CC[C@H](CC(=O)Nc2cnc(-c3ccc(C(C)(C)N)cc3)c(-c3ccccc3)c2)CC1 [Example A34, N-(trans-4-(2-((6-(4-(2-aminopropan-2-yl)phenyl)-5-phenylpyridin-3-yl)amino)-2-oxoethyl)cyclohexyl)pivalamide] | – | > 30000 nM | 160 nM
